Legend:
[1] = test system: autologous CD3+ Pan-T cells (CD8+ and CD4+ T cells) with peptide-pulsed CD1c+ Dendritic Cells; experiment: Exogenous autologous normal donor restimulation assay (in vitro immunogenicity); assay type: cell-based, human; design: key to Max. Frequency of CD8+ TNFαINFγ DP / Max. Frequency of CD4+ TNFαINFγ DP: % of T cells double positive for TNFα/IFNγ; details: pool of overlapping 15-mer peptides, maximum across normal donors; for Maximum Fold Change Over Background CD4+ cells / Maximum Fold Change Over Background CD8+ cells / Maximum Frequency of TNFα/IFNγ Double Positive CD4+ T cells / Maximum Frequency of TNFα/IFNγ Double Positive CD8+ T cells: Table 25; for Maximum Fold Change Over Background CD4+ cells: TNFα+IFNγ+ CD4+ T cells; for Maximum Fold Change Over Background CD4+ cells / Maximum Fold Change Over Background CD8+ cells: over negative control; for Maximum Fold Change Over Background CD8+ cells: TNFα+IFNγ+ CD8+ T cells; for Max. Fold Change over background CD4+ TNFαINFγ double positive DP / Max. Fold Change over background CD8+ TNFαINFγ double positive DP / Max. Frequency of CD4+ TNFαINFγ DP / Max. Frequency of CD8+ TNFαINFγ DP: Table 28, additional neoantigens
Protocol: CD1c+ Dendritic Cells (DC) isolated from human normal PBMCs were thawed using media (IMDM (Gibco) supplemented with glutamine, HEPES, 5% human serum (Sigma), and 1× Pen-Strep). DC cells were resuspended in media supplemented with IL-4 (Peprotech, 80 ng/mL) and GM-CSF (Gibco, 80 ng/mL), plated in 6 well microplates, and rested overnight at 37° C. (5% CO2). The following day, DC cells were counted and plated in a 96 well round bottom microplate at a concentration of 30,000 viable cells per well. Lyophilized peptides (15-mer overlapping peptides) were solubilized in 100% DMSO and pooled by neoantigen to between 5 mg/mL and 20 mg/mL. Neoantigen peptides pools were added to DCs for a final concentration of 2.5 μg/mL to 10 μg/mL and rested for 2 hours at 37° C. (5% CO2). CEF Peptide Pool “Plus” (Cellular Technologies, Ltd.) was utilized as a positive control and DMSO at the same final concentration as the experimental peptides was utilized as a negative control. After 2 hours, DC cells were irradiated with 50 gray of ionizing radiation. Autologous CD3+ Pan-T cells isolated from human normal PBMCs were thawed using media. Following irradiation, autologous Pan-T cells were added to the irradiated DCs at 300,000 viable cells per well. Human IL-15 (Peprotech) was added to all wells at final concentration of 10 ng/mL.
(§1) Plates were incubated at 37° C. (5% CO2) for a total of 12 days. Media was refreshed every 2-3 days with IL-15 (10 ng/mL final concentration) and IL-2 (R&D systems, 10 IU/mL final concentration). On day 11 cells were re-stimulated with identical experimental peptide pools or controls, at same concentration as peptide stimulation on Day 1. Protein Inhibitor Cocktail (eBioscience) was added to every well and plate was incubated overnight at 37° C. (5% CO2).
(§2) On day 12, cells were stained for intracellular flow cytometry analysis. The cells were washed with PBS and stained with Live/Dead Fixable Aqua Dead Cell stain (Thermo-Fisher). Following the live/dead stain, cells were blocked using Biotin-Free Fc Receptor Blocker (Accurate Chemical & Scientific Corp). Extracellular cellular flow panel (1 μL/antibody per well in 50 μL) consisted of CD3 PerCP-Cy5.5 (Biolegend), CD4 BV421 (Biolegend), and CD8 APC-Cy7 (Biolegend). After extracellular staining, cells were fixed using Foxp3/Transcription Factor Staining Buffer Set (eBioscience) and stained for intracellular proteins (1:50 dilution) using TNFα FITC (R&D Systems) and IFNγ BV785 (Biolegend). Cells were washed and resuspended in stain buffer and analyzed using a BD Celesta flow cytometer.
Flow cytometry cell staining analysis was completed using FlowJo v10. Cells were gated on live, singlet, CD3+ cells. The CD8+ and CD4+ T cells were analyzed for TNFα/IFNγ expression and the frequency of double positive TNFα/IFNγ CD8+ and the frequency of double positive TNFα/IFNγ CD4+ T cells were recorded. Responses were assessed to be positive when the frequency of double positive TNFα/IFNγ CD8+ or TNFα/IFNγ CD4+ T cells due to stimulation with an experimental peptide pool was increased greater than or equal to 3-fold over the DMSO only negative control for that donor and at least 0.01%.
(§3) Overlapping 15-mer peptides were designed to span each neoantigen incorporated into NeoGAd20 and NeoMVA to assess their ability to activate T cells using the exogenous autologous normal donor restimulation assay described in Example 1 as pools using TNFα and IFNγ production by CD8^+ and CD4^+ T cells as a readout.
as §3, with “Immunogenicity of various additional identified neoantigens was assessed. Overlapping” for “Overlapping”, “similarly to what was done in Example 11” for “incorporated into NeoGAd20 and NeoMVA”

[2] = test system: CD8+ T cells in PBMCs from patients with metastatic castrate-resistant prostate cancer; experiment: Patient PBMC restimulation assay (in vitro immunogenicity of neoantigens); assay type: cell-based, human; details: for Immunogenic: Patient PBMC restimulation, TNFα and IFNγ production by CD8+ T cells; for Maximum fold change over negative control: TNFα+IFNγ+CD8+ T cells, highest fold change across the PBMC donors evaluated, 9 mer peptide; for Maximum frequency of TNFα^+IFNγ^+CD8^+ T cells (Percent): greatest frequency among all tested PBMC donors, negative control 0.011-0.8 depending on patient
Protocol: PBMCs from human patients with metastatic castrate-resistant prostate cancer were thawed using media (RPMI 1640 supplemented with Glutamax, 10% HI FBS, and 1× Sodium Pyruvate). Cells were counted and plated in a 96 well round bottom microplate at a concentration of 250,000 viable cells per well. Lyophilized peptides were solubilized in 100% DMSO and diluted in media to 10 μg/mL. Neoantigen peptides were added in equal volume to PBMCs for a final concentration of 5 μg/mL. CEF Peptide Pool “Plus” (Cellular Technologies, Ltd.) was utilized as a positive control and DMSO at the same final concentration as the experimental peptides was utilized as a negative control. Human IL-15 (Peprotech) was added to all wells at final concentration of 10 ng/mL.
as §1, with “13” for “12”, “2” for “2-3”, “12, PBMCs” for “11 cells”, “peptides” for “peptide pools”, “After 1-hour incubation, protein” for “Protein”, “overnight.” for “overnight at 37° C. (5% CO2).”
as §2, with “13,” for “12,”
Flow cytometry cell staining analysis was completed using FlowJo v10. Cells were gated on live, singlet, CD3+ cells. The CD8+ T cells were analyzed for TNFα/IFNγ expression and the frequency of double positive TNFα/IFNγ CD8+ T cells was recorded. Responses were assessed to be positive when the frequency of double positive TNFα/IFNγ CD8+ T cells due to stimulation with an experimental peptide was increased greater than or equal to 2-fold over the DMSO only negative control for that patient. Peptides were analyzed in 1 to 7 patient samples.
The 9 mer fragments shown in Table 13 were assessed for their ability to activate T cells using the Patient PBMC restimulation assay described in Example 1 using TNFα and IFNγ production by CD8^+ T cells as a readout. Self-antigens shown in Table 15 were also used in the assays. […] PBMCs from ten patients were evaluated.

| Substance | Maximum Fold Change Over Background CD4+ cells [1] | Maximum Fold Change Over Background CD8+ cells [1] | Maximum Frequency of TNFα/IFNγ Double Positive CD4+ T cells [1] | Maximum Frequency of TNFα/IFNγ Double Positive CD8+ T cells [1] | Immunogenic [2] | Maximum fold change over negative control [2] | Maximum frequency of TNFα^+IFNγ^+CD8^+ T cells (Percent) [2] [%] | Max. Fold Change over background CD4+ TNFαINFγ double positive DP [1] | Max. Fold Change over background CD8+ TNFαINFγ double positive DP [1] | Max. Frequency of CD4+ TNFαINFγ DP [1] | Max. Frequency of CD8+ TNFαINFγ DP [1] |
| --- | --- | --- | --- | --- | --- | --- | --- | --- | --- | --- | --- |
| GVPGDSTRRAVRRMNTF [Neoantigen P16] | 2.44 | 2.44 | 0.039 | 0.039 | Yes | 65.82 | 4.620 | – | – | – | – |
| HYKLIQQPISLFSITDRLHKTFSQLPSVHLCSITFQWGHPPIFCSTNDICVTANFCISVTFLKPCFLLHEASASQ [MS1] | 50.19 | 5.56 | 0.39 | 0.1 | – | – | – | – | – | – | – |
| NSKMALNSLNSIDDAQLTRIAPPRSHCCFWEVNAP [Neoantigen P35] | 3.47 | 14.44 | 0.03 | 0.26 | Yes | 2.67 | 0.064 | – | – | – | – |
| P19 (IPVLTRWPL) [Neoantigen P19] | – | – | – | – | – | – | – | 6.67 | 4.76 | 0.16 | 0.15 |
| P27 (FPVGAEGTF) [Neoantigen P27] | – | – | – | – | – | – | – | 45.38 | 7.87 | 0.05 | 0.59 |
| P27 (FPVGAEGTF) [Peptide P27] | – | – | – | – | Yes | 3.43 | 0.430 | – | – | – | – |
| P37 (GVLRRLLCR) [Neoantigen P37] | – | – | – | – | – | – | – | 22.78 | 2.05 | 0.09 | 0.13 |
| P37 (GVLRRLLCR) [Peptide P37] | – | – | – | – | Yes | – | 1.160 | – | – | – | – |
| P50 (IQYSCMGLM) [Peptide P50] | – | – | – | – | Yes | 5.14 | 0.190 | – | – | – | – |
| P59 (NMVENGCYL) [Peptide P59] | – | – | – | – | Yes | 10.75 | 3.010 | – | – | – | – |
| P97 (LMAQRLLLR) [Neoantigen P97] | – | – | – | – | – | – | – | 3.14 | 7.47 | 0.12 | 1.11 |
| TMPAILKLQKNCLLSL [MS8] | 15.60 | 4.44 | 0.40 | 0.14 | – | – | – | – | – | – | – |
| YAYKDFLWCFPFSLVFLQEIQICCHVSCLCCICCSTRICLGCLLELFLSRALRALHVLWNGFQLHCQ [MS6] | 111.97 | 4.17 | 0.87 | 0.08 | – | – | – | – | – | – | – |

— US20230035403A1, “Method For Determining Responsiveness To Prostate Cancer Treatment” (Janssen Biotech, Inc., priority 2020, published 2023)
